{
  "source": "patent US20120016010A1",
  "about": "“RNA Interference Mediated Inhibition of BTB and CNC Homology 1, Basic Leucine Zipper Transcription Factor 1 (BACH1) Gene Expression Using Short Interfering Nucleic Acid (siNA)” (Merck Sharp & Dohme Corp, priority 2009, published 2012)",
  "key": {"Bach1 mRNA [1]": {"test_system": "Bach1 mRNA", "test": "Initial screen: Bach1 mRNA knock-down in human A549 cells (96-well transfection, quantitative RT-PCR)", "type": "cell-based", "conditions": "Bach1 mRNA, 10 nM siNA, human A549 cells, n = 2, mean ± S.D., normalized to GAPDH and non-targeting control, 24 hrs post-transfection", "description": "(§1) All cells were obtained from ATCC (Manassas, Va.) unless otherwise indicated. Cells were grown and transfected under standard conditions, which are detailed below for each cell line.\n(§2) Cells were plated in all wells of a tissue-culture treated, 96-well plate at a final count of 5000 cells/well in 100 μL of the appropriate culture media. The cells were cultured for 24 hours after plating at 37° C. in the presence of 5% CO2.\n(§3) After 24 hours, complexes containing siNA and RNAiMax were created as follows: A solution of RNAiMax diluted 33-fold in OPTI-MEM was prepared. […] After incubation of RNAiMax/OPTI-MEM solution at room temperature for 5 min, an equal volume of the siNA solution and the RNAiMax solution were added together for each of the siNAs.\n(§4) This solution was incubated at room temperature for 20 minutes. After incubation, 20 uL of the solution was added to each of the relevant wells. The final concentration of siNA in each well was 10 nM and the final volume of RNAiMax in each well was 0.3 ul. […]\n(§5) Briefly, a 60 uL (1 plate) or 110 uL (2 plates) of the Lysis Solution with DNase I was dispensed into each well of the Lysis Buffer Plate (twin.tec full skirt plate). The lysis buffer and stop plates were stored at 4° C. until the cells were washed.\n(§6) The plate was spun at 1100 rpm for 5 minutes. The culture medium was aspirated and discarded from the wells of the culture plate. The lysis was performed automatically using a BioMek FX instrument and method. After the Biomek method was completed, the lysis plate was incubated for 2 min at room temperature. The lysis plate can be stored for 2 hours at 4° C., or at −20° C. or −80° C. for two months.\n(§7) Each well of the reverse transcription plate required 10 uL of 2× reverse transcriptase Buffer, 1 uL of 20× reverse transcription enzyme and 2 uL of nuclease-free water. The reverse transcription master mix was prepared by mixing 2× reverse transcription buffer, 20× reverse transcription enzyme mix, and nuclease-free water. 13 uL of the reverse transcription master mix was dispensed into each well of the reverse transcription plate (semi-skirted). A separate reverse transcription plate was prepared for each cell plate. The plate was loaded onto a Biomek NX or Biomek FX Dual −96 and the Biomek method was run. The program is programmed to automatically added 7 uL of lysate from the cell lysis procedure described above into each well of the reverse transcription plate. The plate is sealed and spun on a centrifuge (1000 rpm for 30 seconds) to settle the contents to the bottom of the reverse transcription plate. The plate is placed in a thermocycler at 37° C. for 60 min, 95° C. for 5 min, and 4° C. until the plate is removed from the thermocycler. Upon removal, if not used immediately, the plate was frozen at −20° C.\n(§8) A series of probes and primers were used to detect the various mRNA transcripts of the genes of Bach1, HMOX-1, and GAPDH in mouse and human cell lines. The assays were performed on an ABI 7900 instrument, according to the manufacturer's instructions. […] The PCR reactions were carried out at 50° C. for 2 min, 95° C. for 20 min followed by 40 cycles at 95° C. for 15 secs and 60° C. for 1 min\n(§9) Within each experiment, the […] was set in the exponential phase of the amplification curve, and based on the intersection point of the baselines with the amplification curve, a Ct value was assigned by the instrument.\n(§10) The expression level of the gene of interest and % knock-down was calculated using Comparative Ct method:\n(§11) ΔCt=ΔCt(Target siRNA)−ΔCt(NTC)\n(§12) Relative expression level=2^−ΔΔCt\n(§13) The non-targeting control siNA was, unless otherwise indicated, chosen as the value against which to calculate the % knock-down, because it is the most relevant control."}, "Bach1 mRNA [2]": {"test_system": "Bach1 mRNA", "test": "Initial screen: Bach1 mRNA knock-down in mouse NIH 3T3 cells (96-well transfection, quantitative RT-PCR)", "type": "cell-based", "conditions": "mouse NIH3T3 cells, n = 2, 24 hrs post-transfection, protocol 10 nM siNA", "description": "as §1, §2, §3, §4, §5, §6, §7, §8, §9, §10, §11, §12, §13"}},
  "note": "[invAb] = inverted abasic unit; d = 2'-deoxy (DNA); m = 2'-O-methyl; r = 2'-OH (RNA); f = 2'-fluoro",
  "data": [
    {"substance": "29975-DC: Bach1 siNA duplex, target site 1893 (mouse); sense B GucGcAAGAGGAAAcuuGA TTB (SEQ 99); antisense UCAAGuuuccucuuGcGAcUU (SEQ 100) (sense GUCGCAAGAGGAAACUUGATT; antisense UCAAGUUUCCUCUUGCGACUU; sense: DNA at AGT, 2'-fluoro at CU, [invAb] at 5' end, 3' end, backbone not given here; antisense: sugars from the 5' end rrrmmfffffffffmfmmfmm, backbone not given here)", "values": [
      {"measurement": "% KD", "setting": "Bach1 mRNA [1]", "result": "59 ± 8.3", "unit": "%"},
      {"measurement": "% KD", "setting": "Bach1 mRNA [2]", "result": "40.4 ± 0.4", "unit": "%"}
    ]},
    {"substance": "29976-DC: Bach1 siNA duplex, target site 1585 (mouse); sense B cuGcucAAGcAAcuuGGAA TTB (SEQ 101); antisense UUCcAAGuuGcuuGAGcAGUU (SEQ 102) (sense CUGCUCAAGCAACUUGGAATT; antisense UUCCAAGUUGCUUGAGCAGUU; sense: DNA at AGT, 2'-fluoro at CU, [invAb] at 5' end, 3' end, backbone not given here; antisense: sugars from the 5' end rrrfmmmffmfffmmmfmmmm, backbone not given here)", "values": [
      {"measurement": "% KD", "setting": "Bach1 mRNA [1]", "result": "17.5 ± 1.7", "unit": "%"},
      {"measurement": "% KD", "setting": "Bach1 mRNA [2]", "result": "−1.2 ± 11.6", "unit": "%"}
    ]},
    {"substance": "29977-DC: Bach1 siNA duplex, target site 1640 (mouse); sense B GAGccuuGcccGuAuGcuu TTB (SEQ 103); antisense AAGcAuAcGGGcAAGGcucUU (SEQ 104) (sense GAGCCUUGCCCGUAUGCUUTT; antisense AAGCAUACGGGCAAGGCUCUU; sense: DNA at AGT, 2'-fluoro at CU, [invAb] at 5' end, 3' end, backbone not given here; antisense: sugars from the 5' end rrrfmfmfmmmfmmmmfffmm, backbone not given here)", "values": [
      {"measurement": "% KD", "setting": "Bach1 mRNA [1]", "result": "18.9 ± 0.3", "unit": "%"},
      {"measurement": "% KD", "setting": "Bach1 mRNA [2]", "result": "53 ± 2.9", "unit": "%"}
    ]},
    {"substance": "29978-DC: Bach1 siNA duplex, target site 403 (mouse); sense B GGuuAAAGGAuuuGAAccu TTB (SEQ 105); antisense AGGuucAAAuccuuuAAccUU (SEQ 106) (sense GGUUAAAGGAUUUGAACCUTT; antisense AGGUUCAAAUCCUUUAACCUU; sense: DNA at AGT, 2'-fluoro at CU, [invAb] at 5' end, 3' end, backbone not given here; antisense: sugars from the 5' end rrrfffmmmffffffmmffmm, backbone not given here)", "values": [
      {"measurement": "% KD", "setting": "Bach1 mRNA [1]", "result": "14.4 ± 0^ %"},
      {"measurement": "% KD", "setting": "Bach1 mRNA [2]", "result": "3.3 ± 3.8", "unit": "%"}
    ]},
    {"substance": "29979-DC: Bach1 siNA duplex, target site 1523 (mouse); sense B cGGAcuuucAcAAcucucA TTB (SEQ 107); antisense UGAGAGuuGuGAAAGuccGUU (SEQ 108) (sense CGGACUUUCACAACUCUCATT; antisense UGAGAGUUGUGAAAGUCCGUU; sense: DNA at AGT, 2'-fluoro at CU, [invAb] at 5' end, 3' end, backbone not given here; antisense: sugars from the 5' end rrrmmmffmfmmmmmfffmmm, backbone not given here)", "values": [
      {"measurement": "% KD", "setting": "Bach1 mRNA [1]", "result": "−18.1 ± 18^ %"},
      {"measurement": "% KD", "setting": "Bach1 mRNA [2]", "result": "62.4 ± 2.6", "unit": "%"}
    ]},
    {"substance": "29980-DC: Bach1 siNA duplex, target site 1939 (mouse); sense B cGAGAAGcuGcAAAGuGAA TTB (SEQ 109); antisense UUCAcuuuGcAGcuucucGUU (SEQ 110) (sense CGAGAAGCUGCAAAGUGAATT; antisense UUCACUUUGCAGCUUCUCGUU; sense: DNA at AGT, 2'-fluoro at CU, [invAb] at 5' end, 3' end, backbone not given here; antisense: sugars from the 5' end rrrmffffmfmmffffffmmm, backbone not given here)", "values": [
      {"measurement": "% KD", "setting": "Bach1 mRNA [1]", "result": "91.3 ± 0.9", "unit": "%"},
      {"measurement": "% KD", "setting": "Bach1 mRNA [2]", "result": "49.2 ± 1.1", "unit": "%"}
    ]},
    {"substance": "29981-DC: Bach1 siNA duplex, target site 331 (mouse); sense B cAGcuAcuuccAcucGAGA TTB (SEQ 111); antisense UCUcGAGuGGAAGuAGcuGUU (SEQ 112) (sense CAGCUACUUCCACUCGAGATT; antisense UCUCGAGUGGAAGUAGCUGUU; sense: DNA at AGT, 2'-fluoro at CU, [invAb] at 5' end, 3' end, backbone not given here; antisense: sugars from the 5' end rrrfmmmfmmmmmfmmffmmm, backbone not given here)", "values": [
      {"measurement": "% KD", "setting": "Bach1 mRNA [1]", "result": "1 ± 0.9", "unit": "%"},
      {"measurement": "% KD", "setting": "Bach1 mRNA [2]", "result": "3.5 ± 5", "unit": "%"}
    ]},
    {"substance": "29982-DC: Bach1 siNA duplex, target site 1752 (mouse); sense B cAuucAAuGcccAAcGGAu TTB (SEQ 113); antisense AUCcGuuGGGcAuuGAAuGUU (SEQ 114) (sense CAUUCAAUGCCCAACGGAUTT; antisense AUCCGUUGGGCAUUGAAUGUU; sense: DNA at AGT, 2'-fluoro at CU, [invAb] at 5' end, 3' end, backbone not given here; antisense: sugars from the 5' end rrrfmffmmmfmffmmmfmmm, backbone not given here)", "values": [
      {"measurement": "% KD", "setting": "Bach1 mRNA [1]", "result": "−9.2 ± 4.6", "unit": "%"},
      {"measurement": "% KD", "setting": "Bach1 mRNA [2]", "result": "9 ± 8.9", "unit": "%"}
    ]},
    {"substance": "29983-DC: Bach1 siNA duplex, target site 363; sense B GAuuuGAAccuuuAAuucA TTB (SEQ 115); antisense UGAAuuAAAGGuucAAAucUU (SEQ 116) (sense GAUUUGAACCUUUAAUUCATT; antisense UGAAUUAAAGGUUCAAAUCUU; sense: DNA at AGT, 2'-fluoro at CU, [invAb] at 5' end, 3' end, backbone not given here; antisense: sugars from the 5' end rrrmffmmmmmfffmmmffmm, backbone not given here)", "values": [
      {"measurement": "% KD", "setting": "Bach1 mRNA [1]", "result": "74.7 ± 1.8", "unit": "%"},
      {"measurement": "% KD", "setting": "Bach1 mRNA [2]", "result": "49 ± 2", "unit": "%"}
    ]},
    {"substance": "29985-DC: Bach1 siNA duplex, target site 1312; sense B AGGcuucuGGAGuGAcAuu TTB (SEQ 119); antisense AAUGucAcuccAGAAGccuUU (SEQ 120) (sense AGGCUUCUGGAGUGACAUUTT; antisense AAUGUCACUCCAGAAGCCUUU; sense: sugars from the 5' end dddfffffddddfrdfdffdd, [invAb] at 5' end, 3' end, backbone not given here; antisense: sugars from the 5' end rrrmffmffffmmmmmfffmm, backbone not given here)", "values": [
      {"measurement": "% KD", "setting": "Bach1 mRNA [1]", "result": "18.6 ± 6.5", "unit": "%"},
      {"measurement": "% KD", "setting": "Bach1 mRNA [2]", "result": "1.3 ± 4.5", "unit": "%"}
    ]},
    {"substance": "29987-DC: Bach1 siNA duplex, target site 1313; sense B GGcuucuGGAGuGAcAuuu TTB (SEQ 123); antisense AAAuGucAcuccAGAAGccUU (SEQ 124) (sense GGCUUCUGGAGUGACAUUUTT; antisense AAAUGUCACUCCAGAAGCCUU; sense: DNA at AGT, 2'-fluoro at CU, [invAb] at 5' end, 3' end, backbone not given here; antisense: sugars from the 5' end rrrfmffmffffmmmmmffmm, backbone not given here)", "values": [
      {"measurement": "% KD", "setting": "Bach1 mRNA [1]", "result": "16 ± 0.2", "unit": "%"},
      {"measurement": "% KD", "setting": "Bach1 mRNA [2]", "result": "−16.1 ± 11.6", "unit": "%"}
    ]}
  ]
}
